{
  "source": "PubChem BioAssay AID1963966",
  "about": "(Molecular Pharmacology Branch, DTP, NCI, 2024)",
  "system": "935938-334-R-J1-PDC spheroids with HUVEC/MSC, viability",
  "experiment": "Anticancer human tumor 935938-334-R-J1-PDC patient-derived small intestine adenocarcinoma cell line growth inhibition [PI3K]",
  "settings": "for IC50: curve of first compound; for viability, T/C: stronger effect = lower value",
  "method_in_brief": "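We assembled tumor spheroids that included a stromal compartment of HUVEC and MSCs, then exposed them to targeted agents alone and together with PI3K pathway inhibitors. Concentration series descended by half-log from clinically achievable Cmax levels. Viability served as the endpoint.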",
  "key": {"[1]": {"settings": "second compound 0.00316 µM, first compound 0.0316 µM"}, "[2]": {"settings": "second compound 0.00316 µM, first compound 0.1 µM"}, "[3]": {"settings": "second compound 0.00316 µM, first compound 0.316 µM"}, "[4]": {"settings": "second compound 0.00316 µM, first compound 1 µM"}, "[5]": {"settings": "second compound 0.00316 µM, first compound 3.16 µM"}, "[6]": {"settings": "second compound 0.00316 µM, first compound 10 µM"}, "[7]": {"settings": "second compound 0.01 µM, first compound 0.0316 µM"}, "[8]": {"settings": "second compound 0.01 µM, first compound 0.1 µM"}, "[9]": {"settings": "second compound 0.01 µM, first compound 0.316 µM"}, "[10]": {"settings": "second compound 0.01 µM, first compound 1 µM"}, "[11]": {"settings": "second compound 0.01 µM, first compound 3.16 µM"}, "[12]": {"settings": "second compound 0.01 µM, first compound 10 µM"}, "[13]": {"settings": "second compound 0.0316 µM, first compound 0.0316 µM"}, "[14]": {"settings": "second compound 0.0316 µM, first compound 0.1 µM"}, "[15]": {"settings": "second compound 0.0316 µM, first compound 0.316 µM"}, "[16]": {"settings": "second compound 0.0316 µM, first compound 1 µM"}, "[17]": {"settings": "second compound 0.0316 µM, first compound 3.16 µM"}, "[18]": {"settings": "second compound 0.0316 µM, first compound 10 µM"}, "[19]": {"settings": "second compound 0.1 µM, first compound 0.0316 µM"}, "[20]": {"settings": "second compound 0.1 µM, first compound 0.1 µM"}, "[21]": {"settings": "second compound 0.1 µM, first compound 0.316 µM"}, "[22]": {"settings": "second compound 0.1 µM, first compound 1 µM"}, "[23]": {"settings": "second compound 0.1 µM, first compound 3.16 µM"}, "[24]": {"settings": "second compound 0.1 µM, first compound 10 µM"}, "[25]": {"settings": "second compound 0.316 µM, first compound 0.0316 µM"}, "[26]": {"settings": "second compound 0.316 µM, first compound 0.1 µM"}, "[27]": {"settings": "second compound 0.316 µM, first compound 0.316 µM"}, "[28]": {"settings": "second compound 0.316 µM, first compound 1 µM"}, "[29]": {"settings": "second compound 0.316 µM, first compound 3.16 µM"}, "[30]": {"settings": "second compound 0.316 µM, first compound 10 µM"}, "[31]": {"settings": "second compound 1 µM, first compound 0.0316 µM"}, "[32]": {"settings": "second compound 1 µM, first compound 0.1 µM"}, "[33]": {"settings": "second compound 1 µM, first compound 0.316 µM"}, "[34]": {"settings": "second compound 1 µM, first compound 1 µM"}, "[35]": {"settings": "second compound 1 µM, first compound 3.16 µM"}, "[36]": {"settings": "second compound 1 µM, first compound 10 µM"}},
  "data": [
    {"compound": "C=CC(=O)N1CCN(c2nc(=O)n(-c3c(C)ccnc3C(C)C)c3nc(-c4c(O)cccc4F)c(F)cc23)C(C)C1", "note": "(centres undefined) + COc1c(OCCCN2CCOCC2)ccc2c3n(c(=NC(=O)c4cnc(N)nc4)nc12)CCN3;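 further: compound exposure lasted seven days before viability was read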;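 on viability, T/C: percent of vehicle DMSO treated spheroid viability so 100% = untreated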", "values": [
      {"measurement": "IC50", "setting": "second compound 0.00316 µM", "value": "> 10000", "unit": "nM"},
      {"measurement": "IC50", "setting": "second compound 0.01 µM", "value": "> 10000", "unit": "nM"},
      {"measurement": "IC50", "setting": "second compound 0.0316 µM", "value": "> 10000", "unit": "nM"},
      {"measurement": "IC50", "setting": "second compound 0.1 µM", "value": 2400, "unit": "nM"},
      {"measurement": "IC50", "setting": "second compound 0.316 µM", "value": "< 31.6", "unit": "nM"},
      {"measurement": "IC50", "setting": "second compound 1 µM", "value": "< 31.6", "unit": "nM"},
      {"measurement": "viability, T/C", "setting": "[1]", "value": 94, "unit": "%"},
      {"measurement": "viability, T/C", "setting": "[2]", "value": 108, "unit": "%"},
      {"measurement": "viability, T/C", "setting": "[3]", "value": 93.9, "unit": "%"},
      {"measurement": "viability, T/C", "setting": "[4]", "value": 91, "unit": "%"},
      {"measurement": "viability, T/C", "setting": "[5]", "value": 104, "unit": "%"},
      {"measurement": "viability, T/C", "setting": "[6]", "value": 109, "unit": "%"},
      {"measurement": "viability, T/C", "setting": "[7]", "value": 100, "unit": "%"},
      {"measurement": "viability, T/C", "setting": "[8]", "value": 96, "unit": "%"},
      {"measurement": "viability, T/C", "setting": "[9]", "value": 92.5, "unit": "%"},
      {"measurement": "viability, T/C", "setting": "[10]", "value": 94.9, "unit": "%"},
      {"measurement": "viability, T/C", "setting": "[11]", "value": 102, "unit": "%"},
      {"measurement": "viability, T/C", "setting": "[12]", "value": 93.2, "unit": "%"},
      {"measurement": "viability, T/C", "setting": "[13]", "value": 93.1, "unit": "%"},
      {"measurement": "viability, T/C", "setting": "[14]", "value": 83.5, "unit": "%"},
      {"measurement": "viability, T/C", "setting": "[15]", "value": 86.7, "unit": "%"},
      {"measurement": "viability, T/C", "setting": "[16]", "value": 71.7, "unit": "%"},
      {"measurement": "viability, T/C", "setting": "[17]", "value": 82.7, "unit": "%"},
      {"measurement": "viability, T/C", "setting": "[18]", "value": 65.9, "unit": "%"},
      {"measurement": "viability, T/C", "setting": "[19]", "value": 56.9, "unit": "%"},
      {"measurement": "viability, T/C", "setting": "[20]", "value": 47.5, "unit": "%"},
      {"measurement": "viability, T/C", "setting": "[21]", "value": 61.2, "unit": "%"},
      {"measurement": "viability, T/C", "setting": "[22]", "value": 49.3, "unit": "%"},
      {"measurement": "viability, T/C", "setting": "[23]", "value": 67, "unit": "%"},
      {"measurement": "viability, T/C", "setting": "[24]", "value": 33, "unit": "%"},
      {"measurement": "viability, T/C", "setting": "[25]", "value": 32.7, "unit": "%"},
      {"measurement": "viability, T/C", "setting": "[26]", "value": 31.7, "unit": "%"},
      {"measurement": "viability, T/C", "setting": "[27]", "value": 34.5, "unit": "%"},
      {"measurement": "viability, T/C", "setting": "[28]", "value": 34.7, "unit": "%"},
      {"measurement": "viability, T/C", "setting": "[29]", "value": 28.1, "unit": "%"},
      {"measurement": "viability, T/C", "setting": "[30]", "value": 32.9, "unit": "%"},
      {"measurement": "viability, T/C", "setting": "[31]", "value": 29.3, "unit": "%"},
      {"measurement": "viability, T/C", "setting": "[32]", "value": 38.8, "unit": "%"},
      {"measurement": "viability, T/C", "setting": "[33]", "value": 38.5, "unit": "%"},
      {"measurement": "viability, T/C", "setting": "[34]", "value": 33, "unit": "%"},
      {"measurement": "viability, T/C", "setting": "[35]", "value": 32.5, "unit": "%"},
      {"measurement": "viability, T/C", "setting": "[36]", "value": 44.1, "unit": "%"}
    ]},
    {"compound": "CC(C)NCC(C(=O)N1CCN(c2ncnc3c2C(C)CC3O)CC1)c1ccc(Cl)cc1", "note": "(centres undefined) + COc1c(OCCCN2CCOCC2)ccc2c3n(c(=NC(=O)c4cnc(N)nc4)nc12)CCN3", "values": [
      {"measurement": "IC50", "setting": "second compound 0.00316 µM", "value": 5660, "unit": "nM"},
      {"measurement": "IC50", "setting": "second compound 0.01 µM", "value": 2730, "unit": "nM"},
      {"measurement": "IC50", "setting": "second compound 0.0316 µM", "value": 1310, "unit": "nM"},
      {"measurement": "IC50", "setting": "second compound 0.1 µM", "value": "< 31.6", "unit": "nM"},
      {"measurement": "IC50", "setting": "second compound 0.316 µM", "value": "< 31.6", "unit": "nM"},
      {"measurement": "IC50", "setting": "second compound 1 µM", "value": "< 31.6", "unit": "nM"},
      {"measurement": "viability, T/C", "setting": "[1]", "value": 94.5, "unit": "%"},
      {"measurement": "viability, T/C", "setting": "[2]", "value": 99, "unit": "%"},
      {"measurement": "viability, T/C", "setting": "[3]", "value": 84.8, "unit": "%"},
      {"measurement": "viability, T/C", "setting": "[4]", "value": 65.5, "unit": "%"},
      {"measurement": "viability, T/C", "setting": "[5]", "value": 62.5, "unit": "%"},
      {"measurement": "viability, T/C", "setting": "[6]", "value": 41.5, "unit": "%"},
      {"measurement": "viability, T/C", "setting": "[7]", "value": 85.5, "unit": "%"},
      {"measurement": "viability, T/C", "setting": "[8]", "value": 106, "unit": "%"},
      {"measurement": "viability, T/C", "setting": "[9]", "value": 82, "unit": "%"},
      {"measurement": "viability, T/C", "setting": "[10]", "value": 61.1, "unit": "%"},
      {"measurement": "viability, T/C", "setting": "[11]", "value": 54.5, "unit": "%"},
      {"measurement": "viability, T/C", "setting": "[12]", "value": 39.8, "unit": "%"},
      {"measurement": "viability, T/C", "setting": "[13]", "value": 84.2, "unit": "%"},
      {"measurement": "viability, T/C", "setting": "[14]", "value": 67.4, "unit": "%"},
      {"measurement": "viability, T/C", "setting": "[15]", "value": 68, "unit": "%"},
      {"measurement": "viability, T/C", "setting": "[16]", "value": 48.5, "unit": "%"},
      {"measurement": "viability, T/C", "setting": "[17]", "value": 45.5, "unit": "%"},
      {"measurement": "viability, T/C", "setting": "[18]", "value": 29.5, "unit": "%"},
      {"measurement": "viability, T/C", "setting": "[19]", "value": 48.3, "unit": "%"},
      {"measurement": "viability, T/C", "setting": "[20]", "value": 49.4, "unit": "%"},
      {"measurement": "viability, T/C", "setting": "[21]", "value": 39.3, "unit": "%"},
      {"measurement": "viability, T/C", "setting": "[22]", "value": 44.3, "unit": "%"},
      {"measurement": "viability, T/C", "setting": "[23]", "value": 40.8, "unit": "%"},
      {"measurement": "viability, T/C", "setting": "[24]", "value": 30.4, "unit": "%"},
      {"measurement": "viability, T/C", "setting": "[25]", "value": 30.6, "unit": "%"},
      {"measurement": "viability, T/C", "setting": "[26]", "value": 40.4, "unit": "%"},
      {"measurement": "viability, T/C", "setting": "[27]", "value": 29.8, "unit": "%"},
      {"measurement": "viability, T/C", "setting": "[28]", "value": 33.7, "unit": "%"},
      {"measurement": "viability, T/C", "setting": "[29]", "value": 26.7, "unit": "%"},
      {"measurement": "viability, T/C", "setting": "[30]", "value": 30.3, "unit": "%"},
      {"measurement": "viability, T/C", "setting": "[31]", "value": 36.6, "unit": "%"},
      {"measurement": "viability, T/C", "setting": "[32]", "value": 34.7, "unit": "%"},
      {"measurement": "viability, T/C", "setting": "[33]", "value": 37, "unit": "%"},
      {"measurement": "viability, T/C", "setting": "[34]", "value": 34.2, "unit": "%"},
      {"measurement": "viability, T/C", "setting": "[35]", "value": 30.1, "unit": "%"},
      {"measurement": "viability, T/C", "setting": "[36]", "value": 33.2, "unit": "%"}
    ]}
  ]
}
